Measured values: ChEMBL document CHEMBL4190243, “Natural alkaloids as P-gp inhibitors for multidrug resistance reversal in cancer” (Eur J Med Chem, 2017)

What was measured:
[1] = Inhibition of P-gp in human HCT116/VM46 cells assessed as potentiation of paclitaxel-induced cytotoxicity; format: cell-based; settings: HCT-116/VM46
[2] = target: Multidrug resistance-associated protein 1 (Homo sapiens, UniProt P33527); experiment: Inhibition of MRP1 in human MCF7/ADR cells assessed as potentiation of mitoxantrone-induced cytotoxicity by measuring fold reduction in mitoxantrone IC50 at 50 uM after 0.5 to 4 hrs by fluorometric method; format: cell-based
Homo sapiens [3] = organism: Homo sapiens; experiment: Inhibition of P-gp in human MCF7/ADR cells assessed as potentiation of doxorubicin-induced cytotoxicity by measuring fold reduction in doxorubicin IC50 at 50 uM after 0.5 to 4 hrs by fluorometric method; format: cell-based
Homo sapiens [4] = organism: Homo sapiens; experiment: Inhibition of P-gp in human MCF7/DOX cells assessed as potentiation of doxorubicin-induced cytotoxicity by measuring fold reduction in doxorubicin IC50 at 5 uM; format: cell-based
Homo sapiens [5] = organism: Homo sapiens; experiment: Inhibition of P-gp in human KB/VCR cells assessed as potentiation of vincristine-induced cytotoxicity by measuring fold reduction in vincristine IC50 at 5 uM; format: cell-based
K562/A02 [6] = experiment: Inhibition of P-gp in human K562/A02 cells assessed as potentiation of doxorubicin-induced cytotoxicity by measuring fold reduction in doxorubicin IC50 at 5 uM; format: cell-based
Homo sapiens [7] = organism: Homo sapiens; experiment: Inhibition of P-gp in human KB/VCR cells assessed as potentiation of vincristine-induced cytotoxicity by measuring fold reduction in vincristine IC50; format: cell-based
[8] = target: T1, ATP-dependent translocase ABCB1 (Homo sapiens, UniProt P08183); experiment: Inhibition of MDR1 in human KB-C2 cells assessed as potentiation of vincristine-induced cytotoxicity by measuring fold reduction in vincristine IC50; format: cell-based
[9] = Inhibition of P-gp in human MCF7/DX1 cells assessed as […] [3H]paclitaxel accumulation after 40 mins by scintillation counting method; format: cell-based
[10] = Inhibition of P-gp in human MCF7/DX1 cells assessed as […] Rh123 accumulation after 30 mins by FACS analysis; format: cell-based; settings: MCF7/DX1, 0.5 h
[11] = Inhibition of P-gp in human Caco2 cells assessed as reduction in accumulation of calcein-AM preincubated for 30 mins followed by Rh123 addition measured after 90 mins by fluorescence spectrofluorometric method; format: cell-based; settings: Caco-2
[12] = Inhibition of P-gp in human Caco2 cells assessed as reduction in accumulation of Rh123 preincubated for 30 mins followed by Rh123 addition measured after 90 mins by fluorescence spectrofluorometric method; format: cell-based; settings: Caco-2
Homo sapiens [13] = organism: Homo sapiens; experiment: Inhibition of P-gp in human CEM/DOX5000 cells assessed as potentiation of doxorubicin-induced cytotoxicity by measuring fold reduction in doxorubicin IC50; format: cell-based
Homo sapiens [14] = organism: Homo sapiens; experiment: Inhibition of P-gp in human Caco2 cells assessed as potentiation of doxorubicin-induced cytotoxicity by measuring fold reduction in doxorubicin IC50; format: cell-based
Mus musculus = organism: Mus musculus; experiment: Inhibition of P-gp in mouse P388/DOX cells assessed as potentiation of doxorubicin-induced cytotoxicity by measuring fold reduction in doxorubicin IC50; format: cell-based
Homo sapiens [15] = organism: Homo sapiens; experiment: Inhibition of P-gp in human HCT116/VM46 cells assessed as potentiation of doxorubicin-induced cytotoxicity by measuring fold reduction in doxorubicin IC50; format: cell-based
Homo sapiens [16] = organism: Homo sapiens; experiment: Inhibition of P-gp in human CCRF-CEM/VLB100 cells assessed as potentiation of vinblastine-induced cytotoxicity by measuring fold reduction in vinblastine IC50
Homo sapiens [17] = organism: Homo sapiens; experiment: Inhibition of P-gp in human HCT116/VM46 cells assessed as potentiation of vinblastine-induced cytotoxicity by measuring fold reduction in vinblastine IC50; format: cell-based
MES-SA/Dx5 = experiment: Inhibition of P-gp in human MES-SA/Dx5 cells assessed as potentiation of paclitaxel-induced cytotoxicity; format: cell-based
Homo sapiens [18] = organism: Homo sapiens; experiment: Inhibition of P-gp in human A549/DDP cells assessed as potentiation of doxorubicin-induced cytotoxicity; format: cell-based
Homo sapiens [19] = organism: Homo sapiens; experiment: Inhibition of P-gp in human MCF7/DOX cells assessed as potentiation of mitoxantrone-induced cytotoxicity by measuring fold reduction in mitoxantrone IC50 at 50 uM after 48 hrs by MTT assay; format: cell-based
[20] = target: T1, ATP-dependent translocase ABCB1; experiment: Inhibition of human MDR1 expressed in mouse L5178 cells assessed as accumulation of Rh123 by measuring fluorescence activity ratio preincubated for 10 mins followed by Rh123 addition measured after 20 mins by FACS analysis; format: cell-based
K562/A02 [21] = experiment: Inhibition of P-gp in human K562/A02 cells assessed as potentiation of doxorubicin-induced cytotoxicity by measuring fold reduction in doxorubicin IC50; format: cell-based
[22] = Cytotoxicity against human KB1 cells; format: functional; settings: read-out: ED50 (the source's name)
Homo sapiens [23] = organism: Homo sapiens; experiment: Inhibition of P-gp in human KBV1 cells assessed as potentiation of vinblastine-induced cytotoxicity by measuring fold reduction in vinblastine IC50 at 50 uM; format: cell-based
Homo sapiens [24] = organism: Homo sapiens; experiment: Inhibition of P-gp in human K562/VCR cells assessed as potentiation of doxorubicin-induced cytotoxicity by measuring fold reduction in doxorubicin IC50; format: cell-based

T1 sequence (P08183 whole entry): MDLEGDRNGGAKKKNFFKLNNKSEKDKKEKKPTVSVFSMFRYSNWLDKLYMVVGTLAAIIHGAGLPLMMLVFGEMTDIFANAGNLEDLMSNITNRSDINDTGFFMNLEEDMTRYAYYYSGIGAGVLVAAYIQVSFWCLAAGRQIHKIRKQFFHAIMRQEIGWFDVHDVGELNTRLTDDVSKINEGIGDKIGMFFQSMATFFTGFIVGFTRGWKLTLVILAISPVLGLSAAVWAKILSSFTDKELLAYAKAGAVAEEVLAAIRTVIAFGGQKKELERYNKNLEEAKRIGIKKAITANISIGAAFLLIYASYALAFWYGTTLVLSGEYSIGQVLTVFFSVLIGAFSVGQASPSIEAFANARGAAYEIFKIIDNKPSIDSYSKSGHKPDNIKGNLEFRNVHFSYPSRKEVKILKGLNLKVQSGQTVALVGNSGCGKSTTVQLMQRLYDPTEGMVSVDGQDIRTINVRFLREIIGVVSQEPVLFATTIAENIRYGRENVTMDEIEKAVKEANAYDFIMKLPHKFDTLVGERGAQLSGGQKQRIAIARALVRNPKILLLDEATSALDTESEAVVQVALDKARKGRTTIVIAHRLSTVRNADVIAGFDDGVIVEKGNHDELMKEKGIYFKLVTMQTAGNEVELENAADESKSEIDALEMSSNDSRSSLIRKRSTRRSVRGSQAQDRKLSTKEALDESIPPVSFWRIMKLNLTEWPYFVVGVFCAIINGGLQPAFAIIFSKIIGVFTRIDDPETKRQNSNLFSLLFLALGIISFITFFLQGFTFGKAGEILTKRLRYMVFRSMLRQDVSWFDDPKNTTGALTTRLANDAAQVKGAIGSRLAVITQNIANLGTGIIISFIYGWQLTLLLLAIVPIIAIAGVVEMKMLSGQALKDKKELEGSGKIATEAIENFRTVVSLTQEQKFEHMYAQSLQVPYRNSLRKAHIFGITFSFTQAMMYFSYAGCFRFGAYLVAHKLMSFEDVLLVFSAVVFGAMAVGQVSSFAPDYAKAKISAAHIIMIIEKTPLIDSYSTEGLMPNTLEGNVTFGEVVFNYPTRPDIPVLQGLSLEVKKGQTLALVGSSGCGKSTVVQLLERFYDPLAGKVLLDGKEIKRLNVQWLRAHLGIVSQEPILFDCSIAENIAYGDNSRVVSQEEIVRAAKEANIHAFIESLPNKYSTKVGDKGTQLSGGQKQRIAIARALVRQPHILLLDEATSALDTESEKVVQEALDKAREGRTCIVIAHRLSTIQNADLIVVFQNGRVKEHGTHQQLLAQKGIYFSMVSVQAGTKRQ
Sequence of Multidrug resistance-associated protein 1 (P33527 whole entry): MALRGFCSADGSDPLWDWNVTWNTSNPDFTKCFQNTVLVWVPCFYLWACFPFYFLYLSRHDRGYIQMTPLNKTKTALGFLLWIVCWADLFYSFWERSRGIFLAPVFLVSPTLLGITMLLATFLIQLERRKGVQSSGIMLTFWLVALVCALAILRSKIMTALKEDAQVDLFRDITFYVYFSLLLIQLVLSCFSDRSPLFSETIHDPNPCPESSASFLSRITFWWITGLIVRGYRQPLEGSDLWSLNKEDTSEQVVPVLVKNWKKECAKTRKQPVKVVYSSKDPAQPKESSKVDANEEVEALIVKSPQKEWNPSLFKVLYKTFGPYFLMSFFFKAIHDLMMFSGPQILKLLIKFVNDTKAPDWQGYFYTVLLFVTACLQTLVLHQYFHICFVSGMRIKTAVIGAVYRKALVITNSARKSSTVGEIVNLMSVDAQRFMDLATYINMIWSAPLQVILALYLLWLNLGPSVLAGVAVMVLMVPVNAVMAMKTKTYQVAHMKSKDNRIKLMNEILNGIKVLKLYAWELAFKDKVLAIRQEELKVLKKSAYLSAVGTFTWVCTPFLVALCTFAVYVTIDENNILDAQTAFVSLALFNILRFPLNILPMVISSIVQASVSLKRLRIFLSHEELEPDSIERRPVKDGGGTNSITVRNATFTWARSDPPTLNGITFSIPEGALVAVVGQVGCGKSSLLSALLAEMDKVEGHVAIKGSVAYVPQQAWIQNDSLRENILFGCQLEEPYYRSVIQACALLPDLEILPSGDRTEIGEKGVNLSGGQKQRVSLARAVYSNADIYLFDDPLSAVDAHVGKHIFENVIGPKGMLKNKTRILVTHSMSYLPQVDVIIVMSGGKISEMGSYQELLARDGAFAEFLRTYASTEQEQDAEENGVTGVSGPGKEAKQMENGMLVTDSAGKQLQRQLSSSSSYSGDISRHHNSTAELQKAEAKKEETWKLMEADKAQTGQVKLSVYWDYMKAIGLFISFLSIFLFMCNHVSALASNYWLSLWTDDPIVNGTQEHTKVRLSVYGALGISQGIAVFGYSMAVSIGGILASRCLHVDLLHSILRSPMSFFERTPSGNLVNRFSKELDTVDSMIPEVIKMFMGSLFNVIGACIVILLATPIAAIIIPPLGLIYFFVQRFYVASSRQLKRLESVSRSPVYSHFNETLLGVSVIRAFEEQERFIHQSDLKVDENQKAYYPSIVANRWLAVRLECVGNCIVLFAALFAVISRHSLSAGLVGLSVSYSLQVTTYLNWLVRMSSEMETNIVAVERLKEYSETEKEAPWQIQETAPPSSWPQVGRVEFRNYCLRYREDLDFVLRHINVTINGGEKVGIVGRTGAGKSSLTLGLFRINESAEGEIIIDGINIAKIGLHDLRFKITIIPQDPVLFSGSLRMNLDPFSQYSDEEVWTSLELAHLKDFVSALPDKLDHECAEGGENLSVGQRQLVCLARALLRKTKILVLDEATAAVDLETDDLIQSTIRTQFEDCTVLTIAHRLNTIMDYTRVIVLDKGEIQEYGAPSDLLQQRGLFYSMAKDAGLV

With `COc1ccc(C2=C(c3ccc(OC)c(OC)c3)C(=O)N(CCc3cc(Br)c(OCc4ccccc4)c(OCCN4CCOCC4)c3)C2=O)cc1OC` the EC50 [1] was 423 nM.
For `COc1cc2c(cc1OC)-c1c(OC)c(OC)cc3c1[C@H](C2)N(C)CC3` [GLAUCINE], the “fold change (FC)” value [2] was 22, the fold change (FC) (Homo sapiens [3]) was 7 and the fold change (FC) (Homo sapiens [4]) was 7.
`CO[C@@]1(C)N(C/C=C/c2ccccc2)C(=O)C2=C[C@@]3(C(=O)N(C)c4ccccc43)C(=O)N21` gave a fold change (FC) (Homo sapiens [5]) of 10, a fold change (FC) (K562/A02 [6]) of 16 and a fold change (FC) (Homo sapiens [4]) of 42.
Compound `CC[C@]12CCCN[C@]13/C(=C\C(=O)OC)c1ccccc1N3C(=O)CC2` has a fold change (FC) (Homo sapiens [7]) of 4.7.
With `COc1cc2c(cc1O)CCN[C@]21CS[C@@H]2c3c(OC(C)=O)c(C)c4c(c3[C@H](COC1=O)N1[C@@H]2[C@H]2c3c(cc(C)c(OC)c3O)C[C@@H]([C@@H]1O)N2C)OCO4` [TRABECTEDIN] the “fold change (FC)” value [8] was 16.
Work on `C=C[C@H]1CN2CC[C@H]1C[C@@H]2[C@@H](OC(=O)CCCCCCCC(=O)O[C@@H](c1ccnc2ccc(OC)cc12)[C@H]1C[C@@H]2CCN1C[C@@H]2C=C)c1ccnc2ccc(OC)cc12` yielded an IC50 [9] of 2000 nM and an IC50 [10] of 1700 nM.
Work on `CN1Cc2c(ccc3c2OCO3)C2C(O)Cc3cc4c(cc3C21)OCO4` (stereo not drawn) [CHELIDONINE (+)] yielded an IC50 [11] of 11000 nM, an IC50 [12] of 9000 nM and a fold change (FC) (Homo sapiens [13]) of 3. The fold change (FC) (Homo sapiens [14]) was 6.
`COc1ccc(CCn2cc(-c3ccc(OC)c(OC)c3)c3c4cc(OC)c(OC)cc4oc(=O)c32)cc1OC` gave a fold change (FC) (Mus musculus) of 350, a fold change (FC) (Homo sapiens [15]) of 350 and a fold change (FC) (Homo sapiens [16]) of 6.2. It also gave a fold change (FC) (Homo sapiens [17]) of 35.
`COc1ccc2c(c1)C(=O)c1c(OC)c(OC)c(OC)c3ccnc-2c13` gave an ED50 (MES-SA/Dx5) of 0.03 µg/mL.
In the case of `O=C(/C=C/C=C/c1ccc2c(c1)OCO2)N1CCCCC1`, the fold change (FC) (Homo sapiens [18]) is reported as 14, the fold change (FC) (Homo sapiens [4]) is reported as 32 and the fold change (FC) (Homo sapiens [19]) is reported as 7.
Work on `Cn1c2ccccc2c(=O)c2c(O)cc3c(c21)CC(C(C)(O)CO)O3` (centres undefined) [GRAVACRIDONDIOL] yielded a Ratio [20] of 1.72.
With `CCCCC(CC(C)=O)n1cnc2c(N)ncnc21` (centres undefined) the fold change (FC) (K562/A02 [21]) was 1.5 to 2.7.
`CC(/C=C/C=C\C=C\C=C(/C)C(=O)N[C@@H](C)CO)=C\[C@@H](C)[C@@H](O)/C(C)=C/[C@@H](C)CCc1ccccc1` gave an EC50 [22] of 0.03 nM.
For `COc1ccc(/C=C/NC(=O)c2c(-c3cc(OC)c(OC)c(OC)c3)c(-c3cc(OC)c(OC)c(OC)c3)c(C(=O)N/C=C/c3ccc(OC)cc3)n2CCc2ccc(OC)cc2)cc1`, the fold change (FC) (Homo sapiens [17]) was 66.
For `CC[C@@H](O)[C@H]1CC[C@H]2O[C@H]3CCN1[C@@H]2[C@@H]1C3O/C(=C2\OC(=O)C(C)=C2OC)[C@H]1C` (some centres undefined), the fold change (FC) (Homo sapiens [23]) was 2.
For `O=C1CCC[C@@H]2[C@H]3CCCN4CCC[C@@H](CN12)[C@@H]34`, the fold change (FC) (Homo sapiens [24]) was 2.2.
